The values below come from patent publication US20140193802A1, “IDENTIFICATION OF AN ALTERED THERAPEUTIC SUSCEPTIBILITY TO ANTI-HCMV COMPOUNDS AND OF A RESISTANCE AGAINST ANTI-HCMV COMPOUNDS” (priority 2012, published 2014).

For this experiment, the system named is RV-HG UL56-C325Yrev. The experiment can be described thus: GFP-RA, marker transfer revertant. The format is cell-based, human cytomegalovirus (HCMV). As to conditions: Human betaherpesvirus 5. On the procedure:
HCMV Fluorescence Reduction Assay (GFP-RA)
The susceptibilities of recombinant HCMV laboratory strains expressing GFP were determined by a GFP-based fluorescence reduction assay. For standard assays, 1.5×10^4 NHDF cells/well were cultured in black 96-well plates (Greiner Bio-One, Germany) and infected with either HCMV-GFP (MOI, 0.1) or RV-HG (MOI, 0.2 to 0.5). After virus adsorption, the virus inoculum was replaced with 200 μl fresh medium. Thereafter, 100 μl medium containing the test compounds was added to wells of horizontal row G, followed by serial 3-fold dilutions up to row A. All drug concentrations were tested at least in duplicate. Wells of the horizontal row H served as the virus control. Plates were incubated at 37° C. for 7 days. The medium was replaced by 200 μl PBS, and GFP units (GFPU) were determined by a charge-coupled-device-camera-based fluorescence detector (FluoBox; Bayer Technology Services GmbH, Leverkusen, Germany), which captures 96 images simultaneously. Drug effects were calculated as a percentage of reduction in GFPU in the presence of each drug concentration compared to the GFPU determined in the absence of drug. EC50 and EC90 values (drug concentrations producing 50% and 90% reduction in GFPU) were calculated using nonlinear regression curve fit with a variable slope. GraphPad Prism 3.02 or 4.0 software (GraphPad Software Inc., La Jolla, Calif.) was used for all analyses.
The HCMV AD169-derived bacterial artificial chromosome (BAC) pHG served as the backbone for the construction of the mutant viruses. The markerless introduction of point mutations into pHG was done using a two-step recombination protocol according to the en passant method. Briefly, a recombination fragment containing the I-SceI-AphAI cassette from plasmid pEPKan-S was obtained by PCR using primers containing ˜60 bp of homology to the intended integration site in ORF UL56 of BAC pHG and ˜20 bp specific for pEPKan-S. This fragment was electroporated into Escherichia coli GS1783 that harbored the pHG BAC. […] After successful kanamycin selection, all non-HCMV sequences were removed by an intrabacterial ISceI digest and a subsequent second Red recombination, resulting in the scarless repair of the mutated UL56 gene in the background of BAC pHG. The integrity of the generated BACs was confirmed by restriction enzyme digestion and sequencing. To reconstitute virus mutants, the recombinant BACs were transfected into permissive MRC5 cells. At least two independent virus clones per mutation were generated and evaluated.

Molecules are shown by their SMILES. Read-outs that look alike come from different tables or passages of the source.

Consider `Nc1nc(O)c2ncn(COC(CO)CO)c2n1` [Ganciclovir], for which the EC50 – broadly, the concentration giving half of the maximal effect – was 2830 ± 810 nM.

For `COc1cccc(N2CCN(C3=Nc4c(F)cccc4[C@H](CC(=O)O)N3c3cc(C(F)(F)F)ccc3OC)CC2)c1` [Letermovir, (S)-{8-fluoro-2-[4-(3-methoxyphenyl)-1-piperazinyl]-3-[2-methoxy-5-(trifluoromethyl)phenyl]-3,4-dihydro-4-quinazolinyl}acetic acid], the EC50 (RV-HG UL56-C325Yrev, fluorescence reduction assay, mean ± SD, read-out: EC50) was 3.9 ± 0.9 nM.
